Each structure is given as a SMILES string.

We go through three compounds from paper PMC6437697 (Journal of Medicinal Chemistry, 2019).

Test in all cases: KINOMEscan
Holding throughout (type): binding
What all share (settings): read-out: % control activity remaining

The target in test [1] is T1, ABL1-nonphosphorylated (Homo sapiens, UniProt P00519).
T1 construct: purchased Eurofins DiscoverX KINOMEscan

The target of test [2] is T2, ABL1(F317L)-nonphosphorylated (Homo sapiens, UniProt P00519, F317L).
T2 construct: purchased Eurofins DiscoverX KINOMEscan

Test [3] deals with T3, ABL1(H396P)-phosphorylated (Homo sapiens, UniProt P00519, H396P).
T3 construct: purchased Eurofins DiscoverX KINOMEscan

Test [4] has as its target T4, SBK1 (Homo sapiens, UniProt Q52WX2).
T4 construct: purchased Eurofins DiscoverX KINOMEscan

Test [5] concerns the target T5, YSK1 (Homo sapiens, UniProt O00506).
T5 construct: purchased Eurofins DiscoverX KINOMEscan

Test [6] deals with T6, MAPKAPK5 (Homo sapiens, UniProt Q8IW41).
T6 construct: purchased Eurofins DiscoverX KINOMEscan
T6 sequence (Q8IW41 1-473): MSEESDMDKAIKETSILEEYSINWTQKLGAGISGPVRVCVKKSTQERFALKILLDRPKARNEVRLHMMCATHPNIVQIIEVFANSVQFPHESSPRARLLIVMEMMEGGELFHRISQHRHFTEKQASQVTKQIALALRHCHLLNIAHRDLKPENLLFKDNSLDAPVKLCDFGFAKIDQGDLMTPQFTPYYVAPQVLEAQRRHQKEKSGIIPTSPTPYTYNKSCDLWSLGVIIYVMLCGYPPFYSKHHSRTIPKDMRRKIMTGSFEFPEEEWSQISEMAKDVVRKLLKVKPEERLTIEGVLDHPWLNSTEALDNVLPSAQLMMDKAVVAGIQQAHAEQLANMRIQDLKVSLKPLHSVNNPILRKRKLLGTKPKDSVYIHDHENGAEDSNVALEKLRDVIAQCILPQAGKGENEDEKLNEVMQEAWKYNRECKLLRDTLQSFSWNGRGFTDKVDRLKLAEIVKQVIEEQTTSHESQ

In test [7] the target is T7, PAK4 (Homo sapiens, UniProt O96013).
T7 construct: purchased Eurofins DiscoverX KINOMEscan

The target of test [8] is T8, FGR (Homo sapiens, UniProt P09769).
T8 construct: purchased Eurofins DiscoverX KINOMEscan

For test [9], the target named is T9, RPS6KA4(Kin.Dom.2-C-terminal) (Homo sapiens, UniProt O75676).
T9 construct: RPS6KA4(Kin.Dom.2-C-terminal); purchased Eurofins DiscoverX KINOMEscan

Test [10] deals with T10, TNK1 (Homo sapiens, UniProt Q13470).
T10 construct: purchased Eurofins DiscoverX KINOMEscan
T10 sequence (Q13470 1-666): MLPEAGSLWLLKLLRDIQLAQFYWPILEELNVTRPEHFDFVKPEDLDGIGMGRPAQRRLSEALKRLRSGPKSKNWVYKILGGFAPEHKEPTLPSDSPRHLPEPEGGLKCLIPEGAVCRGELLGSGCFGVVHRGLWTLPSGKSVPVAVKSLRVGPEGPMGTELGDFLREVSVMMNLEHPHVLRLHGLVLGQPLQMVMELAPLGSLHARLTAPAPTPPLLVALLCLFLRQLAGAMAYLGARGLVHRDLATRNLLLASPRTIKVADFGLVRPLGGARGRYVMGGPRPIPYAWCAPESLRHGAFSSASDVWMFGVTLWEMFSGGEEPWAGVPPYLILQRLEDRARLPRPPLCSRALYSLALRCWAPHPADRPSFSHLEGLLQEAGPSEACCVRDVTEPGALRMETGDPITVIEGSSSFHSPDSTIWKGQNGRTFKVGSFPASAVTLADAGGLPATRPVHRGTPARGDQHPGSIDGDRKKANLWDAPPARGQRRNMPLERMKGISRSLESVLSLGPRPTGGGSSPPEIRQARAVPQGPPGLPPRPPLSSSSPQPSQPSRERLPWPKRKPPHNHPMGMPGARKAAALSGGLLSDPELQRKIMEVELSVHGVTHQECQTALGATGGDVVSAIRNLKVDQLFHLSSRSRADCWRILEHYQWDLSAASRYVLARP

The target in test [11] is T11, SGK3 (Homo sapiens, UniProt Q96BR1).
T11 construct: purchased Eurofins DiscoverX KINOMEscan
T11 sequence (Q96BR1 1-496): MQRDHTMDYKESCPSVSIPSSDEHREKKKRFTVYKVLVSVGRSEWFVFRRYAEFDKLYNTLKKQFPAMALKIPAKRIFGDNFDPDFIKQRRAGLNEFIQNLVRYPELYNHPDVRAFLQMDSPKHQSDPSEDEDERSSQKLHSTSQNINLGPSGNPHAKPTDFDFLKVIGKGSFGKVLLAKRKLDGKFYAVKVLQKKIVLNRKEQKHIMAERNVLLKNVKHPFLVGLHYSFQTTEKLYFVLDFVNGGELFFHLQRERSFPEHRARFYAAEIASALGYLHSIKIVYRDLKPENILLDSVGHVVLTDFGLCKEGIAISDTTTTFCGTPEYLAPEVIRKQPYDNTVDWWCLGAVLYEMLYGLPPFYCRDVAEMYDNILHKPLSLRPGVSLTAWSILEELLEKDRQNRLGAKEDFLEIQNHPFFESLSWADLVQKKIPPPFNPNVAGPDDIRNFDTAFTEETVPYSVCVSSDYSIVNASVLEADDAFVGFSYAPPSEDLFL

T9 sequence (O75676 411-674 limits assumed): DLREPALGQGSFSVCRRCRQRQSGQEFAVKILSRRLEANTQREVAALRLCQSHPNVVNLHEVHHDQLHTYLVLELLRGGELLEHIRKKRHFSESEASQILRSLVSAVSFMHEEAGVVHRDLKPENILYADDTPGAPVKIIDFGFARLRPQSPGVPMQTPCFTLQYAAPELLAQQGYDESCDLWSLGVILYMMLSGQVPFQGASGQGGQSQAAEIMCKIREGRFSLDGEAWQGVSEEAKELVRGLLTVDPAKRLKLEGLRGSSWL
T8 sequence (P09769 whole entry): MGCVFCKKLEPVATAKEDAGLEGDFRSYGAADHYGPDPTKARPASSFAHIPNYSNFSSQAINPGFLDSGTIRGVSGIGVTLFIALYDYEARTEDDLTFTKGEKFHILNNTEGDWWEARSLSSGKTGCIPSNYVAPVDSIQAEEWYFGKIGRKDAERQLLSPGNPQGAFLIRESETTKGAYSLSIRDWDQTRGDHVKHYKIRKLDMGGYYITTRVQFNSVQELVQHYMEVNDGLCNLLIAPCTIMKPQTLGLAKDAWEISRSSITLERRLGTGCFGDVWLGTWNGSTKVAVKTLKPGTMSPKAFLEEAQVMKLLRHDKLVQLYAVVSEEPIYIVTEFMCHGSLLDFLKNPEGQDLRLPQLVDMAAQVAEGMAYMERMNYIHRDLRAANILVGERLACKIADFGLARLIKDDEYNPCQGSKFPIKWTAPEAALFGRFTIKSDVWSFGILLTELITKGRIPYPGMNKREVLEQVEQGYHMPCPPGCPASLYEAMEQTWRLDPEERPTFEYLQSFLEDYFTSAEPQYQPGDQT
T4 sequence (Q52WX2 whole entry): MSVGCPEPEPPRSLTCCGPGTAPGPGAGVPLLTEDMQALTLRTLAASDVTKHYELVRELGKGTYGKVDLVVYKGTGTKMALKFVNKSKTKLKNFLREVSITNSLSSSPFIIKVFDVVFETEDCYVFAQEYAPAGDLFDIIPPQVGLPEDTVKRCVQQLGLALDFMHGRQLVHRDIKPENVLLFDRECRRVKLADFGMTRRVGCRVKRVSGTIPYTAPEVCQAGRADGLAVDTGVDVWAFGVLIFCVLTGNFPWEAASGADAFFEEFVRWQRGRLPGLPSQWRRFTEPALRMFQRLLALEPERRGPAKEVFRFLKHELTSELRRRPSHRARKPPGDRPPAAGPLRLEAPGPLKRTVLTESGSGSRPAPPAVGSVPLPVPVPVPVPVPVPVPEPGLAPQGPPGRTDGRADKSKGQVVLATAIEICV
T7 sequence (O96013 whole entry): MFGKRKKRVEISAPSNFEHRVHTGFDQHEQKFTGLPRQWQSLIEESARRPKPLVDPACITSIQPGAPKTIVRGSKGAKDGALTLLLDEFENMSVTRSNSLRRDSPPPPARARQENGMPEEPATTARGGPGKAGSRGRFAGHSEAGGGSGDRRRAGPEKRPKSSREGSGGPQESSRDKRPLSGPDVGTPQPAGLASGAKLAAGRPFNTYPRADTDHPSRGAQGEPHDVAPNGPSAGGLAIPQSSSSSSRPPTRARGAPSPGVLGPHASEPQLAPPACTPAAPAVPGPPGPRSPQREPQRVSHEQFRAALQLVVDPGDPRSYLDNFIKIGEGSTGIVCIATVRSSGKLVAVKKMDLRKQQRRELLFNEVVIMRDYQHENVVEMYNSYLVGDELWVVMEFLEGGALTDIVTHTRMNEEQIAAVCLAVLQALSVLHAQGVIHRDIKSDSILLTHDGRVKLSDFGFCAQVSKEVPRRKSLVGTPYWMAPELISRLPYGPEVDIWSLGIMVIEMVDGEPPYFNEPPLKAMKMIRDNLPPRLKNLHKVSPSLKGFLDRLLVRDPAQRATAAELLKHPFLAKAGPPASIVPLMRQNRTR
T5 sequence (O00506 whole entry): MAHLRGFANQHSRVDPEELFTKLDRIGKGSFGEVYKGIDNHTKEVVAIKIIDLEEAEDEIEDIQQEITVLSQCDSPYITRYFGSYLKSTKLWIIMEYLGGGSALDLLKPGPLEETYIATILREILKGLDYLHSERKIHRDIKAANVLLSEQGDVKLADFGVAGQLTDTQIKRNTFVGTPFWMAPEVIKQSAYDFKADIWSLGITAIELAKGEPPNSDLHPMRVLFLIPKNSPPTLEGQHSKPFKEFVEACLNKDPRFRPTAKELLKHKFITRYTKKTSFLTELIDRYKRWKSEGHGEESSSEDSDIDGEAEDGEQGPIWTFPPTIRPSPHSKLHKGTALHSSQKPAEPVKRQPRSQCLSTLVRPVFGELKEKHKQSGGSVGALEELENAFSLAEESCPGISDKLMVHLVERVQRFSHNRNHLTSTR

On to `Clc1cc(NCC2CC2)c2ncc(-c3ccc4[nH]ncc4c3)n2n1` [compound 2, 6-Chloro-N-(cyclopropylmethyl)-3-(1H-indazol-5-yl)imidazo[1,2-b]pyridazin-8-amine], for which the remaining binding at 1 µM was found to be 76% in [1]; 68% in [2]; 73% in [3]; 87% in [4]; 92% in [5]; 91% in test [6]. The remaining binding at 1 µM worked out at 79% in test [7]; 75% in test [8]; 87% in test [9]; 69% in test [10]; 91% in [11].

In the case of `O=C(CN1CCOCC1)N[C@H]1CC[C@H](Nc2cc(Cl)nn3c(-c4ccc5[nH]ncc5c4)cnc23)CC1` [compound 26], the remaining binding at 1 µM in test [1] worked out at 44%; in test [2], 26%; in test [3], 46%; in [4] it was 89%; in test [5] it was 100%; in [6] it was 98%. For the same compound, the remaining binding at 1 µM came to 93% in test [7]; 93% in [8]; 81% in test [9]; 100% in [10]; 65% in test [11].

Regarding `CN1CCC(CNc2cc(Cl)nn3c(-c4cc5nc(Nc6ccccc6)[nH]c5cc4F)cnc23)CC1` [compound 31, 6-Chloro-3-(6-fluoro-2-(phenylamino)-1H-benzo[d]imidazol-5-yl)-N-((1-methylpiperidin-4-yl)methyl)imidazo[1,2-b]pyridazin-8-amine], the remaining binding at 1 µM in [1] is 58%; in test [2], 76%; in test [3], 67%; in [4], 77%; in test [5], 99%; in test [6], 82%. Also, the remaining binding at 1 µM turned out to be 86% in [7]; 100% in test [8]; 86% in test [9]; 100% in [10]; 93% in test [11].
